Columns and labels:
[1] = tested on: velvetleaf; assay: Soil treatment test for upland field; type: in vivo, Abutilon theophrasti; set-up: key: 0 = normal development, 5 = all killed; conditions: 500 g/ha, 3 weeks, glass house 25° C.
Method in brief: (§1)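 Using a pre-emergence soil application at 500 g/ha, treated pots were held 3 weeks in a glass house averaging 25° C. Injury was graded on a 0–5 scale against non-treated pots; "-" marks entries not investigated.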

[2] = tested on: livid amaranth; assay: Foliar spread test for upland field; type: in vivo, Amaranthus lividus; set-up: key: 0 = normal development, 5 = all killed (6 ranks vs. untreated); conditions: foliar spray, 500 ppm, 3 weeks, glass house 25° C.
Method in brief: (§2)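 Plants grown about 2 weeks at 25 °C in volcanic ash soil were sprayed with wettable powder diluted to 500 ppm in water with 0.5% surfactant. After 3 weeks at 25 °C, damage was scored 0 (normal) to 5 (all killed) against untreated plants.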

[3] = tested on: livid amaranth; assay: Soil treatment test for upland field; type: in vivo, Amaranthus lividus; set-up: key: 0 = normal development, 5 = all killed; conditions: 500 g/ha, 3 weeks, glass house 25° C.
Method in brief: as §1

[4] = tested on: sugar beat; assay: Soil treatment test for upland field; type: in vivo; set-up: key: 0 = normal development, 5 = all killed; conditions: 500 g/ha, 3 weeks, glass house 25° C.
Method in brief: as §1

[5] = tested on: corn; assay: Soil treatment test for upland field; type: in vivo; set-up: key: 0 = normal development, 5 = all killed; conditions: 500 g/ha, 3 weeks, glass house 25° C.
Method in brief: as §1

[6] = tested on: solgum; assay: Soil treatment test for upland field; type: in vivo; set-up: key: 0 = normal development, 5 = all killed; conditions: 500 g/ha, 3 weeks, glass house 25° C.
Method in brief: as §1

[7] = tested on: wheat; assay: Soil treatment test for upland field; type: in vivo; set-up: key: 0 = normal development, 5 = all killed; conditions: 500 g/ha, 3 weeks, glass house 25° C.
Method in brief: as §1

[8] = tested on: arrowhead; assay: Herbicidal test for paddy field; type: in vivo, Sagittaria pygmaea; conditions: 500 g/ha, dropwise addition to paddy water at 1.5 leaf stage of barnyard grass; glass house 25° C., 3 weeks; rank 0-5 vs non-treated district
Procedure: (§3) Wagner pots, each having an area of 1/5000 are, were packed with Ube soil (alluvial soil) and planted with seeds or tubers of young rice plant, barnyard grass, bulrush, Cyperus serotinus Rottb., arrowhead and monochoria. Then, the pots were filled with water to a depth of 3 cm.
(§4) Each wettable powder of the desired Compounds (I) shown in Tables 1 to 21, 24, 25, 28 and 29 prepared in accordance with Example 2 was diluted with water containing a surfactant (0.05%) and subjected to dropwise addition treatment by using pipet so that an effective concentration of the compound (I) in each herbicide became 500 g/ha at 1.5 leaf stage of barnyard grass.
(§5) These plants were controlled in a glass house at an average temperature of 25° C. for 3 weeks, and then herbicidal effects thereof were investigated.
(§6) The herbicidal effects are evaluated according to the following 6 ranks as compared with non-treated district. (0: normal development, 1: Less damaged, 2: Slightly damaged, 3: Moderately damaged, 4: Severely damaged, 5: All killed). Incidentally, “-” in the column means not investigated.

[9] = tested on: green foxtail; assay: Soil treatment test for upland field; type: in vivo, Setaria viridis; set-up: key: 0 = normal development, 5 = all killed; conditions: 500 g/ha, 3 weeks, glass house 25° C.
Method in brief: as §1

[10] = tested on: green foxtail; assay: Foliar spread test for upland field; type: in vivo, Setaria viridis; set-up: key: 0 = normal development, 5 = all killed (6 ranks vs. untreated); conditions: foliar spray, 500 ppm, 3 weeks, glass house 25° C.
Method in brief: as §2

[11] = tested on: common lambsquarters; assay: Foliar spread test for upland field; type: in vivo, Chenopodium album; set-up: key: 0 = normal development, 5 = all killed (6 ranks vs. untreated); conditions: foliar spray, 500 ppm, 3 weeks, glass house 25° C.
Method in brief: as §2

[12] = tested on: blackgrass; assay: Soil treatment test for upland field; type: in vivo, Alopecurus aegualis; set-up: key: 0 = normal development, 5 = all killed; conditions: 500 g/ha, 3 weeks, glass house 25° C.
Method in brief: as §1

[13] = tested on: Cassia obtusifolia; assay: Foliar spread test for upland field; type: in vivo; set-up: key: 0 = normal development, 5 = all killed; conditions: foliar spray, 500 ppm, 3 weeks, glass house 25° C.
Procedure: as §6
(§7) Wagner pots, each having an area of 1/5000 are, were packed with volcanic ash soil and then each seed of corn, soybean, cotton, wheat, solgum, sugar beat, Large crabgrass, barnyardgrjass, green foxtail, blackgrass, annual bluegrass, common lambsquarters, livid amaranth, velvetleaf, morning glory, Xanthium pensylvanicum and Cassia obtusifolia was planted, covered with soil and grown in a glass house at an average temperature of 25° C. for about 2 weeks.
(§8) Each wettable powder of the desired compounds (I) shown in Tables 1 to 21, 24, 25, 28 and 29 prepared in accordance with Example 2 was diluted to 500 ppm with water containing a surfactant (0.5%) and then uniformly sprayed on the above respective plants.
(§9) After these plants were controlled in a glass house at an average temperature of 25° C. for 3 weeks, the herbicidal effects thereof were investigated.
(§10) The herbicidal effects were evaluated according to the evaluation method described in the above (1).

[14] = tested on: Xanthium pensylvanicum; assay: Foliar spread test for upland field; type: in vivo; set-up: key: 0 = normal development, 5 = all killed; conditions: foliar spray, 500 ppm, 3 weeks, glass house 25° C.
Procedure: as §6, §7, §8, §9, §10

[15] = tested on: Large crabgrass; assay: Foliar spread test for upland field; type: in vivo, Digitaria adscendens; set-up: key: 0 = normal development, 5 = all killed (6 ranks vs. untreated); conditions: foliar spray, 500 ppm, 3 weeks, glass house 25° C.
Method in brief: as §2

[16] = tested on: barnyard grass; assay: Herbicidal test for paddy field; type: in vivo, Eschinochloa crusgalli; conditions: 500 g/ha, dropwise addition to paddy water at 1.5 leaf stage of barnyard grass; glass house 25° C., 3 weeks; rank 0-5 vs non-treated district
Procedure: as §3, §4, §5, §6

[17] = tested on: velvetleaf; assay: Foliar spread test for upland field; type: in vivo, Abutilon theophrasti; set-up: key: 0 = normal development, 5 = all killed (6 ranks vs. untreated); conditions: foliar spray, 500 ppm, 3 weeks, glass house 25° C.
Method in brief: as §2

[18] = tested on: common lambsquarters; assay: Soil treatment test for upland field; type: in vivo, Chenopodium album; set-up: key: 0 = normal development, 5 = all killed; conditions: 500 g/ha, 3 weeks, glass house 25° C.
Method in brief: as §1

[19] = tested on: blackgrass; assay: Foliar spread test for upland field; type: in vivo, Alopecurus aegualis; set-up: key: 0 = normal development, 5 = all killed (6 ranks vs. untreated); conditions: foliar spray, 500 ppm, 3 weeks, glass house 25° C.
Method in brief: as §2

[20] = tested on: Large crabgrass; assay: Soil treatment test for upland field; type: in vivo, Digitaria adscendens; set-up: key: 0 = normal development, 5 = all killed; conditions: 500 g/ha, 3 weeks, glass house 25° C.
Method in brief: as §1

[21] = tested on: morning glory; assay: Soil treatment test for upland field; type: in vivo, Ipomoea spps.; set-up: key: 0 = normal development, 5 = all killed; conditions: 500 g/ha, 3 weeks, glass house 25° C.
Method in brief: as §1

[22] = tested on: barnyardgrjass; assay: Foliar spread test for upland field; type: in vivo, Eschinochloa crusgalli; set-up: key: 0 = normal development, 5 = all killed (6 ranks vs. untreated); conditions: foliar spray, 500 ppm, 3 weeks, glass house 25° C.
Method in brief: as §2

[23] = tested on: annual bluegrass; assay: Soil treatment test for upland field; type: in vivo, Poa annua; set-up: key: 0 = normal development, 5 = all killed; conditions: 500 g/ha, 3 weeks, glass house 25° C.
Method in brief: as §1

[24] = tested on: morning glory; assay: Foliar spread test for upland field; type: in vivo, Ipomoea spps.; set-up: key: 0 = normal development, 5 = all killed (6 ranks vs. untreated); conditions: foliar spray, 500 ppm, 3 weeks, glass house 25° C.
Method in brief: as §2

[25] = tested on: bulrush; assay: Herbicidal test for paddy field; type: in vivo, Scrips juncoides; conditions: 500 g/ha, dropwise addition to paddy water at 1.5 leaf stage of barnyard grass; glass house 25° C., 3 weeks; rank 0-5 vs non-treated district
Procedure: as §3, §4, §5, §6

[26] = tested on: common Cocklebur (Xanthium strumarium); assay: Soil treatment test for upland field; type: in vivo; conditions: 500 g/ha, 3 weeks, glass house 25° C.
Procedure: as §6
Wagner pots, each having an area of 1/5000 are, were packed with Ube soil (alluvial soil), and then each seed of corn, soybean, cotton, wheat, solgum, sugar beat, Large crabgrass, barnyard grass, green foxtail, blackgrass, annual bluegrass, common lambsquarters, livid amaranth, velvetleaf, morning glory, common Cocklebur (Xanthium strumarium) and sicklepod (Cassia obtusifolia) were planted and covered with soil.
Each wettable powder of the desired compounds (I) shown in Tables 1 to 21, 24, 25, 28 and 29 prepared in accordance with Example 2 was diluted with water containing a surfactant (0.05%) and uniformly sprayed on the surface of each soil so that an effective concentration of the compound (I) in each herbicide became 500 g/ha.
as §5, §10

[27] = tested on: sugar beat; assay: Foliar spread test for upland field; type: in vivo; set-up: key: 0 = normal development, 5 = all killed (6 ranks vs. untreated); conditions: foliar spray, 500 ppm, 3 weeks, glass house 25° C.
Method in brief: as §2

[28] = tested on: soybean; assay: Foliar spread test for upland field; type: in vivo; set-up: key: 0 = normal development, 5 = all killed (6 ranks vs. untreated); conditions: foliar spray, 500 ppm, 3 weeks, glass house 25° C.
Method in brief: as §2

[29] = tested on: corn; assay: Foliar spread test for upland field; type: in vivo; set-up: key: 0 = normal development, 5 = all killed (6 ranks vs. untreated); conditions: foliar spray, 500 ppm, 3 weeks, glass house 25° C.
Method in brief: as §2

[30] = tested on: cotton; assay: Foliar spread test for upland field; type: in vivo; set-up: key: 0 = normal development, 5 = all killed (6 ranks vs. untreated); conditions: foliar spray, 500 ppm, 3 weeks, glass house 25° C.
Method in brief: as §2

[31] = tested on: solgum; assay: Foliar spread test for upland field; type: in vivo; set-up: key: 0 = normal development, 5 = all killed (6 ranks vs. untreated); conditions: foliar spray, 500 ppm, 3 weeks, glass house 25° C.
Method in brief: as §2

[32] = tested on: wheat; assay: Foliar spread test for upland field; type: in vivo; set-up: key: 0 = normal development, 5 = all killed (6 ranks vs. untreated); conditions: foliar spray, 500 ppm, 3 weeks, glass house 25° C.
Method in brief: as §2

[33] = tested on: Cyperus serotinus Rottb.; assay: Herbicidal test for paddy field; type: in vivo; conditions: 500 g/ha, dropwise addition to paddy water at 1.5 leaf stage of barnyard grass; glass house 25° C., 3 weeks; rank 0-5 vs non-treated district
Procedure: as §3, §4, §5, §6

[34] = tested on: barnyard grass; assay: Soil treatment test for upland field; type: in vivo, Eschinochloa crusgalli; set-up: key: 0 = normal development, 5 = all killed; conditions: 500 g/ha, 3 weeks, glass house 25° C.
Method in brief: as §1

[35] = tested on: annual bluegrass; assay: Foliar spread test for upland field; type: in vivo, Poa annua; set-up: key: 0 = normal development, 5 = all killed (6 ranks vs. untreated); conditions: foliar spray, 500 ppm, 3 weeks, glass house 25° C.
Method in brief: as §2

[36] = tested on: soybean; assay: Soil treatment test for upland field; type: in vivo; set-up: key: 0 = normal development, 5 = all killed; conditions: 500 g/ha, 3 weeks, glass house 25° C.
Method in brief: as §1

[37] = tested on: monochoria; assay: Herbicidal test for paddy field; type: in vivo, Monochoria vaginalis; conditions: 500 g/ha, dropwise addition to paddy water at 1.5 leaf stage of barnyard grass; glass house 25° C., 3 weeks; rank 0-5 vs non-treated district
Procedure: as §3, §4, §5, §6

Row | SMILES | Effects Livid amaranth [2] | Effects Livid amaranth [3] | Effects Corn [5] | Effects Wheat [7] | Effects Green foxtail [9] | Effects Green foxtail [10] | Effects Common lambsquarters [11] | Effects Large crabgrass [15] | Effects Barnyardgrass [16] | Effects Common lambsquarters [18] | Effects Large crabgrass [20] | Effects Annual bluegrass [23] | Effects Corn [29] | Effects Wheat [32] | Effects Barnyardgrass [34] | further results
1 | FC(F)(F)c1cccc(Oc2cccc(-c3nc4cc(C(F)(F)F)ccc4o3)n2)c1 [I-a-13] | 5 | 5 | 1 | 1 | 5 | 5 | 5 | 3 | 2 | 5 | 5 | 5 | 2 | 2 | 4 | Effects Velvetleaf [1]: 5; Effects Sugar beat [4]: 5; Effects Solgum [6]: 0; Effects Arrowhead [8]: 1; Effects Blackgrass [12]: 4; Effects Sicklepod [13]: 5; Effects Common Cocklebur [14]: 4; Effects Velvetleaf [17]: 4; Effects Blackgrass [19]: 3; Effects Morning glory [21]: 4; Effects Barnyardgrass [22]: 2; Effects Morning glory [24]: 5; Effects Bulrush [25]: 0; Effects Common Cocklebur [26]: 3; Effects Sugar beat [27]: 4; Effects Soybean [28]: 3; Effects Sotton [30]: 5; Effects Solgum [31]: 2; Effects Cyperus serotinus Rottb. [33]: 0; Effects Annual bluegrass [35]: 4
2 | CCC(Oc1cc(C(F)(F)F)no1)c1nc2cc(C#N)c(F)cc2o1 (stereo not shown) [Compound 1-e-28] | 5 | 5 | 0 | 0 | 5 | 4 | 5 | 4 | 5 | 5 | 5 | 5 | 2 | 2 | 4 | Effects Soybean [36]: 1; Effects Monochoria [37]: 5
